Values of other authors as cited in publication PMC6594753, “Cystic fibrosis drug ivacaftor stimulates CFTR channels at picomolar concentrations” (eLife, 2019).

System: CFTR
Parameters: method as in Yeh et al., 2019
Conditions: ref Yeh et al., 2019; cited from earlier work

## CC1(C)Cc2c(sc(NC(=O)c3ccn[nH]3)c2C(N)=O)C(C)(C)O1 [GLPG-1837]
  Hill coefficients of dose response curves for activation: close to unity
